Source: PubChem BioAssay (NCI)
Values joined by “and” are separate entries in the source; they are usually repeats but may differ in a detail not shown here. Equal entries are not always repeated.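 Dose response: 5 concentrations. Exposure: 48 h. Format: 96-well plates. Endpoint: linear interpolation; highest concentration if not reached. GI50 = concentration required for 50% inhibition of growth. TGI is the concentration that stops growth completely.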

What was measured:
Test in all cases: growth of human tumour cells (NCI), 48 h
786-0 renal = tested on: 786-0 renal
HCT-15 colon = tested on: HCT-15 colon
HL-60(TB) leukemia = tested on: HL-60(TB) leukemia
IGROV1 ovarian = tested on: IGROV1 ovarian
KM12 colon = tested on: KM12 colon
SN12C renal = tested on: SN12C renal
T-47D breast = tested on: T-47D breast
UO-31 renal = tested on: UO-31 renal

Row | SMILES | GI50 (786-0 renal) | TGI (786-0 renal) | GI50 (HCT-15 colon) | TGI (HCT-15 colon) | GI50 (HL-60(TB) leukemia) | TGI (HL-60(TB) leukemia) | GI50 (IGROV1 ovarian) | TGI (IGROV1 ovarian) | GI50 (KM12 colon) | TGI (KM12 colon) | GI50 (SN12C renal) | TGI (SN12C renal) | GI50 (T-47D breast) | TGI (T-47D breast) | GI50 (UO-31 renal) | TGI (UO-31 renal)
1 | CO/N=C(\C)c1cccc(Nc2cc(-c3ccccc3)nc3c(O)cccc23)c1 | 0.307 µM | 3.38 µM | 3380 nM | 16.9 µM | 23000 nM | > 100 µM | 2460 nM | 8.29 µM | 3920 nM | 19.1 µM | 5.04 µM | 24.5 µM | 4.32 µM | 26.7 µM | 4580 nM | 60.5 µM
2 | CN1CCN(c2ccc3nc(-c4c(N)c5c(F)cccc5[nH]c4=O)[nH]c3c2)CC1 | 1.2 µM and 0.695 µM and 0.946 µM | 3.93 µM and > 3.84 µM and 3.07 µM | 495 nM and 419 nM and 485 nM | 5.43 µM and > 7.05 µM and 7.76 µM | 860 nM and 314 nM and 1200 nM | 2.8 µM and 2.36 µM and 3.12 µM | 325 nM and 272 nM and 302 nM | 4.94 µM and > 3.98 µM and 11.8 µM | 35.7 nM and 40.6 nM and 40.7 nM | 2.07 µM and > 3.51 µM and 7.5 µM | 0.413 µM and 0.393 µM and 0.62 µM | 5.3 µM and > 5.12 µM and 5.82 µM | 4.04 µM and 12 µM | 10.1 µM and > 6.23 µM and 31.9 µM | 347 nM and 224 nM and 232 nM | 1.91 µM and > 2.8 µM and 1.54 µM
3 | O=C(Nc1ccc(Oc2ccc3nc(NC(=O)c4ccccc4)[nH]c3c2)cc1)Nc1cc(C(F)(F)F)ccc1F | 7.32 µM | > 25 µM | 2070 nM | > 25 µM | 738 nM | 3.29 µM | 1470 nM | > 21.1 µM | 244 nM | 2 µM | 1.75 µM | > 25 µM | 0.783 µM | 3.17 µM | 1310 nM | 15.6 µM
4 | COc1ccc2c(c1)C(=O)c1c-2c(Nc2ccc(C(C)=O)cc2)nc2ccccc12 | 12.3 µM | 32.2 µM | > 100000 nM | > 100 µM | > 100000 nM | > 100 µM | 22900 nM | 92.8 µM | > 100000 nM | > 100 µM | 33.4 µM | > 100 µM | 77.2 µM | > 100 µM | > 100000 nM | > 100 µM
5 | CN(C)c1ccc(/C=C(\C#N)c2nc3ccccc3n2C)cc1 | 8.77 µM | 99 µM | 1290 nM | > 87.6 µM | 3770 nM | > 31.4 µM | 5130 nM | > 100 µM | 1590 nM | 18.4 µM | 11.6 µM | > 100 µM | 3.08 µM | 27.2 µM | 6960 nM | > 100 µM
6 | Oc1ccc(O)c(-c2cc(-c3ccccc3)nn2-c2ccccc2)c1 | 12.2 µM | 25.2 µM | 17000 nM | 42.6 µM | 24900 nM | > 100 µM | > 100000 nM | > 100 µM | 19600 nM | > 100 µM | 17 µM | 45 µM | 19.6 µM | 98.4 µM | 38600 nM | > 100 µM
7 | O=C(c1ccco1)c1nc2cc(F)ccc2[n+]([O-])c1C(F)(F)F | 53.2 µM | > 100 µM | 17800 nM | 39.1 µM | 18400 nM | 49.2 µM | 17900 nM | 36.7 µM | 57000 nM | > 100 µM | 44.4 µM | > 100 µM | 30.6 µM | > 100 µM | 28100 nM | > 100 µM
8 | N#Cc1ccc(N2Cc3ccccc3OC3=C2C(=O)c2c(O)ccc(O)c2C3=O)cc1 | 0.145 µM | 0.381 µM | 174 nM | 0.618 µM | 130 nM | 0.821 µM | 497 nM | 1.36 µM | 1280 nM | 6.1 µM | 0.856 µM | 2.16 µM | 0.175 µM | 0.487 µM | 166 nM | 0.357 µM
9 | O=c1cc(N2CCNCC2)oc2c(-c3ccccc3)cccc12 | 33.7 µM | > 100 µM | 34700 nM | > 100 µM | 29400 nM | > 100 µM | 31800 nM | > 100 µM | 43900 nM | > 100 µM | 45.1 µM | > 100 µM | 26.6 µM | > 100 µM | 24000 nM | > 100 µM
10 | CCN1C(=O)NC(=O)C(C)(N2C(=O)c3c(F)c(F)c(F)c(F)c3C2=O)C1=O (configuration not stated) | 4.49 µM | 17.7 µM | 2860 nM | 11.1 µM | 1610 nM | 3.49 µM | 1900 nM | 4.92 µM | 2110 nM | 4.56 µM | 3.99 µM | 14.6 µM | 3.42 µM | 11.9 µM | 2390 nM | 6.98 µM
11 | Cc1noc(C)c1-c1cc(O)cc(C(O)c2ccccc2)c1 (configuration not stated) | 27.1 µM | > 100 µM | 3520 nM | > 100 µM | 2170 nM | 22.7 µM | 23200 nM | > 100 µM | 8200 nM | > 100 µM | 17.2 µM | > 100 µM | 7.7 µM | > 100 µM | 1080 nM | > 100 µM
12 | COc1ccc(-c2nn(-c3cccc(NC(=O)c4ccc5c(c4)OCCO5)c3)cc2-c2ccncc2)cc1Cl | 1.78 µM | 5.91 µM | 1610 nM | 22.5 µM | 2000 nM | 5.96 µM | 5860 nM | 57.2 µM | 1390 nM | 6.76 µM | 2.92 µM | > 100 µM | 2.96 µM | 47.7 µM | 2570 nM | 17.3 µM
